In patent US7250295B2 (Board of Trustees of Michigan State University, priority 1999, dated 2007):

Assays:
mAB 6F5 [1] = format: binding, mouse; conditions: read-out: 50% inhibitory concentration
[2] = system: antibody obtained from C430-BSA-immunized mice; experiment: CI-ELISA: antisera of C430-BSA-immunized mice on immobilized DONPEP.2 phage; format: binding
Description: The strips were washed and blocked as described for the CD-ELISA. Various concentrations of DON (0 to 10,000 ηg/ml in 1% methanol-PBS), 50 μl/well, was added to the wells, and then 50 μl of anti-DON mAB 6F5 (10 μg/ml in 10% milk-PBS) was added to each well. The wells were incubated at 37° C. for 1 hour. Then the wells were washed six times with PBS-T, and the amounts of bound anti-DON mAB 6F5 were determined by incubation with goat anti-mouse IgG-HRP conjugate (diluted 1:2,000 with 10% milk-PBS) at 37° C. for 1 hour. The amounts of bound enzyme were determined as described above.
Synthetic peptide C430 was conjugated to BSA with a m-maleimidobenzoyl-N-hydroxysulfosuccinimide ester (sulfo-MBS) cross-linker. The C430-BSA conjugate, at a molar ratio of peptide C430 to the carrier protein BSA of about 29:1, was used to inject 7-week-old BALB/c female mice intraperitoneally or 6-month-old New Zealand white rabbits subcutaneously. The initial injections used for the mice contained 100 to 200 μg of C430-BSA conjugate in 200 μl of saline-Freund's complete adjuvant (1:1). These injections were followed at 3-week intervals by booster injections consisting of 100 to 200 μg of conjugate in 200 μl of saline-Freund's incomplete adjuvant (1:1). […]

[3] = system: protein synthesis in vitro with rabbit reticulocyte lysate; format: biochemical
mAB 6F5 [4] = experiment: Binding of nivalenol to mAB 6F5; parameters: species or system mouse

CC1=C[C@H]2O[C@@H]3[C@H](O)C[C@](C)([C@@]2(CO)[C@H](O)C1=O)[C@]31CO1 [DON, 12,13-epoxy-3,7,15-trichothec-9-en-8-one, reference compound]
IC50 (mAB 6F5 [1]): 3.4 µM
inhibition of antisera binding to immobilized phage-displayed peptide ([2]; free competitor in solution): not inhibited by free DON
effect on new protein synthesis [3]: significantly inhibited new protein synthesis
cell death (mouse bone marrow cells; B6C3F1, mouse): 40-60%

CC1=C[C@H]2O[C@@H]3[C@H](O)[C@@H](O)[C@](C)([C@@]2(CO)[C@H](O)C1=O)[C@]31CO1 [Nivalenol, nivalenol]
affinity for mAB 6F5 relative to DON (mAB 6F5 [4]): slightly less affinity than DON

H-SWGPFPFGGGSC-OH [C430, NH2-SWGPFPFGGGSC-COOH]
IC50 ([2]; antiserum after the fourth injection of C430-BSA, FIG. 6, read-out: concentration giving 50% inhibition of antiserum binding to immobilized phage-displayed peptide): 0.39 µM
effect on new protein synthesis [3]: had no such inhibitory effect
new protein synthesis with DON mixed with equimolar C430 [3]: new protein synthesis was not inhibited
effect on cell viability when combined with DON (mouse bone marrow cells): did not significantly increase or decrease the cell viability caused by DON
effect on viability of bone marrow cells (mouse bone marrow cells): did not have any adverse effect on the viability
